Data from patent US20200270225A1, “Chiral Diacylhydrazine Ligands for Modulating the Expression of Exogenous Genes via an Ecdysone Receptor Complex” (Intrexon Corporation, priority 2007, published 2020).
Where two headings read alike, the source gives them in different places.

How the values were obtained:
[1] = Intrinsic dissolution of compressed pellets in 1% Polysorbate 80; format: physicochemical; conditions: 1% Polysorbate 80 in di-water, 37° C., up to 120 minutes
Method: Next, the intrinsic dissolution profiles of R enantiomer and racemate of 2-ethyl-3-methoxy-benzoic acid N′-(1-tert-butyl-butyl)-N′-(3,5-dimethyl-benzoyl)-hydrazide were determined using compressed pellets (7 mm diameter, 100 mg) in 1% Polysorbate 80 in Di-water at 37° C., according to the following test conditions:
Medium: 1% Polysorbate 80 in di-water (vacuum filtered thru a 0.8 μM filter)
Sampling volume: 1 mL (filtered thru 30 micron)
Analysis: HPLC (prepare standard solutions from each lot)
Sample size: n=2 pellets/test substance
After 120 minutes, it was observed that the pellets for both substances remained intact in the medium.

[2] = target: wild-type Choristoneura fumiferana EcR (D, E and F domains) (Choristoneura fumiferana, UniProt O77240); format: cell-based; conditions: WT-CtEcR, 3T3 Cells; for RMFI (relative maximum fold induction): relative to GS-E ligand
How it was run: (§1)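 NIH3T3 cells were transiently co-transfected with GAL4-DBD fused to CfEcR DEF domains (wild-type or V390I/Y410E/E274V), VP16-AD fused to chimeric human/Locusta RXR, and a GAL4-response luciferase reporter. Ligand was given at 8 doses, 0.01–33 µM, 0.33% DMSO, luciferase read at 48 h. EC50 came from fold induction over DMSO via three-parameter logistic fit; Relative Max FI was taken versus GS™-E ligand.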

[3] = target: T1, [V390I/Y410E/E274V]-CfEcR (Choristoneura fumiferana, UniProt O77240); format: cell-based; conditions: 3T3 Cells; for RMFI (relative maximum fold induction): relative to GS-E ligand
T1 construct: assay construct b835
How it was run: as §1

[4] = Solubility in pharmaceutical excipients, Assay 2 (heating, cooling, seeding); format: physicochemical; conditions: supersaturated solutions seeded with crystalline substance, room temperature
Method: For each excipient, the lowest concentration at which R enantiomer or racemate of 2-Ethyl-3-methoxy-benzoic acid N′-(1-tert-butyl-butyl)-N′-(3,5-dimethyl-benzoyl)-hydrazide is insoluble in the FIG. 9 assay was identified. Suspensions of both materials at this same concentration were prepared in vials. Each sample was stirred at room temperature for ≤2.5 hr (treatment 1). As a separate experiment, test article/excipient combinations were heated in an aluminum block at 90° C. for 5 minutes, or longer as needed; indicated in FIG. 10, and allow to cool to room temperature, and seeded with a tiny amount of the same micronized substance. (treatment 2). The physical appearance was recorded at 72 hr or the indicated time (FIG. 10). In all cases, no change in color was observed. This solubility assay operates from a fully dissolved condition in which initial particle size and morphic form are irrelevant. […] Photos were taken of preparations in clear glass vials (R enantiomer under the conditions of assay 1 without heating to 90° C., and racemate after 90° C. treatment, cooling and seeding, not shown).

Structure (SMILES) | release from compressed pellets (intrinsic dissolution) [1] | EC50 ([2]; R) [nM] | RMFI (relative maximum fold induction) ([2]; R) | EC50 ([3]; R) [nM] | RMFI (relative maximum fold induction) ([3]; R) | physical appearance of excipient solutions after seeding [4] | EC50 ([2]; rac) [nM] | RMFI (relative maximum fold induction) ([2]; rac) | EC50 ([3]; rac) [nM] | RMFI (relative maximum fold induction) ([3]; rac)
CCC[C@@H](N(NC(=O)c1cccc(OC)c1CC)C(=O)c1cc(C)cc(C)c1)C(C)(C)C [Example 1, (R)-3,5-Dimethyl-benzoic Acid N-(1-tert-butyl-butyl)-N′-(2-ethyl-3-methoxy-benzoyl)-hydrazide] | under the detection limit | 2.23 | 0.97 | 0.13 | 0.82 | remains fully dissolved |  |  |  | 
CCCC(N(NC(=O)c1cccc(OC)c1CC)C(=O)c1cc(C)cc(C)c1)C(C)(C)C (racemic) [rac-1, rac-2-ethyl-3-methoxy-benzoic acid N′-(1-tert-butyl-butyl)-N′-(3,5-dimethyl-benzoyl)-hydrazide] | under the detection limit |  |  |  |  | precipitation/crystallization upon seeding | 1.63 | 1.05 | 0.14 | 1.05
